Test results published in ChEMBL document CHEMBL4765480 (J Med Chem, 2021).
Converted amounts (≈) assume the structure as drawn.

How the values were obtained:
[1] = Aqueous solubility of compound at pH 6.5; type: physicochemical; conditions: aqueous solution
[2] = Stability in human liver microsomes assessed as parent compound remaining after 10 mins; type: ADME, Microsome; conditions: read-out: Stabilty
[3] = Stability in rat liver microsomes assessed as parent compound remaining after 10 mins; type: ADME, Microsome; conditions: read-out: Stabilty
[4] = Stability in mouse liver microsomes assessed as parent compound remaining after 10 mins; type: ADME, Microsome; conditions: read-out: Stabilty
[5] = Cmax in mouse at 10 mg/kg, po; type: ADME, organism-based; parameters: route oral, dose 10 mg/kg; conditions: in vivo
[6] = Volume of distribution at steady state in mouse at 10 mg/kg, po; type: ADME, organism-based; conditions: in vivo
[7] = Oral bioavailability in mouse at 10 mg/kg; type: ADME, organism-based; conditions: in vivo
[8] = AUC (0 to 24 hrs) in mouse at 10 mg/kg, po; type: ADME, organism-based; parameters: time < 24 hr, route oral, dose 10 mg/kg; conditions: in vivo
[9] = Clearance in mouse at 10 mg/kg, po; type: ADME, organism-based; conditions: in vivo
[10] = Clearance in rat at 10 mg/kg, po; type: ADME, organism-based; conditions: in vivo
[11] = Oral bioavailability in cynomolgus monkey at 7 mg/kg; type: ADME, organism-based, Macaca fascicularis; conditions: in vivo
[12] = AUC (0 to 24 hrs) in rat at 10 mg/kg, po; type: ADME, organism-based; parameters: time < 24 hr, route oral, dose 10 mg/kg; conditions: in vivo
[13] = Half life in human liver microsomes; type: ADME, Microsome
[14] = Oral bioavailability in rat at 10 mg/kg; type: ADME, organism-based; conditions: in vivo
[15] = Half life in dog liver microsomes; type: ADME, Canis lupus familiaris, Microsome
[16] = Half life in mouse liver microsomes; type: ADME, Microsome
[17] = Volume of distribution at steady state in cynomolgus monkey at 7 mg/kg, po; type: ADME, organism-based, Macaca fascicularis; conditions: in vivo
[18] = Cmax in cynomolgus monkey at 7 mg/kg, po; type: ADME, organism-based, Macaca fascicularis; parameters: route oral, dose 7 mg/kg; conditions: in vivo
[19] = Half life in rat liver microsomes; type: ADME, Microsome
[20] = Clearance in cynomolgus monkey at 7 mg/kg, po; type: ADME, organism-based, Macaca fascicularis; conditions: in vivo
[21] = Cmax in dog at 10 mg/kg, po; type: ADME, organism-based, Canis lupus familiaris; parameters: route oral, dose 10 mg/kg; conditions: in vivo
[22] = Half life in monkey liver microsomes; type: ADME, Macaca mulatta, Microsome; conditions: rhesus monkey
[23] = Volume of distribution at steady state in rat at 10 mg/kg, po; type: ADME, organism-based; conditions: in vivo
[24] = Clearance in dog at 10 mg/kg, po; type: ADME, organism-based, Canis lupus familiaris; conditions: in vivo
[25] = AUC (0 to 24 hrs) in cynomolgus monkey at 7 mg/kg, po; type: ADME, organism-based, Macaca fascicularis; parameters: time < 24 hr, route oral, dose 7 mg/kg; conditions: in vivo
[26] = AUC (0 to 24 hrs) in dog at 10 mg/kg, po; type: ADME, organism-based, Canis lupus familiaris; parameters: time < 24 hr, route oral, dose 10 mg/kg; conditions: in vivo
[27] = Cmax in rat at 10 mg/kg, po; type: ADME, organism-based; parameters: route oral, dose 10 mg/kg; conditions: in vivo
[28] = Volume of distribution at steady state in dog at 10 mg/kg, po; type: ADME, organism-based, Canis lupus familiaris; conditions: in vivo
[29] = Oral bioavailability in dog at 10 mg/kg; type: ADME, organism-based, Canis lupus familiaris; conditions: in vivo

Compound | remaining at 10 min [2] | remaining at 10 min [3] | remaining at 10 min [4] | Cmax [5] | Vdss [6] | bioavailability [7] | AUC(0-t) at 24 h [8] | CL/F [9] | further results
[2H]C([2H])([2H])NC(=O)c1cnc(NC(=O)C2CC2)cc1Nc1cccc(-c2ncccn2)c1OC | – | – | – | – | – | – | – | – | solubility [1]: 32 µg/mL (≈ 75.9 µM)
[2H]C([2H])([2H])NC(=O)c1nnc(NC(=O)C2CC2)cc1Nc1cccc(-c2ncn(C)n2)c1OC [DEUCRAVACITINIB] | 98% | 100% | 89% | – | – | – | – | – | –
[2H]C([2H])([2H])NC(=O)c1nnc(NC(=O)C2CC2)cc1Nc1cccc(-c2ncccn2)c1OC | 100% | 77% | 78% | 5.4 µM | 2.3 L/kg | 31% | 15 µM·h | 7.9 mL/min/kg | solubility [1]: < 1 µg/mL
[2H]C([2H])([2H])NC(=O)c1nnc(NC(=O)C2CC2)cc1Nc1cccc(-c2cnccn2)c1OC | 58% | 1% | 1% | – | – | – | – | – | –
[2H]C([2H])([2H])NC(=O)c1nnc(NC(=O)C2CC2)cc1Nc1cccc(-c2cnc(C(C)(C)O)cn2)c1OC | 95% | 90% | 99% | 6.1 µM | 3.4 L/kg | 41% | 26 µM·h | 5.3 mL/min/kg | –
[2H]C([2H])([2H])NC(=O)c1nnc(NC(=O)C2CC2)cc1Nc1cccc(-c2cnc(C(=O)N(C)C)cn2)c1OC | – | – | – | 7.8 µM | 1.5 L/kg | 43% | 19 µM·h | 7.6 mL/min/kg | –
[2H]C([2H])([2H])NC(=O)c1nnc(NC(=O)C2CC2)cc1Nc1cccc(-c2cccnn2)c1OC | 60% | 8% | 0% | – | – | – | – | – | –
[2H]C([2H])([2H])NC(=O)c1nnc(NC(=O)C2CC2)cc1Nc1cccc(-c2ccncn2)c1OC | 48% | 3% | 3% | – | – | – | – | – | –
[2H]C([2H])([2H])NC(=O)c1nnc(NC(=O)C2CC2)cc1Nc1cccc(-c2ncc(C(C)(C)O)cn2)c1OC | – | – | – | – | – | – | – | – | solubility [1]: 14 µg/mL (≈ 29.1 µM)
[2H]C([2H])([2H])NC(=O)c1cnc(NC(=O)C2CC2)cc1Nc1cccc(-c2ncc(F)cn2)c1OC [BMS-986202] | – | – | – | 13 µM | 1.1 L/kg | 62% | 65 µM·h | 3 mL/min/kg | CL/F [10]: 3.6 mL/min/kg; bioavailability [11]: 100%; AUC(0-t) at 24 h [12]: 77 µM·h; half-life [13]: > 2 h; bioavailability [14]: 72%; half-life [15]: 1.48 h; half-life [16]: > 2 h; Vdss [17]: 7 L/kg; Cmax [18]: 11 µM; half-life [19]: > 2 h; CL/F [20]: 2.3 mL/min/kg; Cmax [21]: 14 µM; half-life [22]: > 2 h; Vdss [23]: 1.1 L/kg; CL/F [24]: 1.8 mL/min/kg; AUC(0-t) at 24 h [25]: 130 µM·h; AUC(0-t) at 24 h [26]: 126 µM·h; Cmax [27]: 13 µM; Vdss [28]: 1.5 L/kg; bioavailability [29]: 100%
[2H]C([2H])([2H])NC(=O)c1nnc(NC(=O)C2CC2)cc1Nc1cccc(-c2ccccn2)c1OC | 79% | 34% | 42% | – | – | – | – | – | –
